These results are taken from patent US20110105477A1, “COMPOSITIONS AND METHODS RELATING TO HIV PROTEASE INHIBITION” (The Regents of the University of Michigan, priority 2007, published 2011).

A word on the IC50: it is the point on the concentration scale where inhibition reaches its midpoint.

Each structure is given as a SMILES string.

In the first assay the target is HIV-1 protease (Human immunodeficiency virus type 1 group M subtype B, UniProt P04585). The experiment in a line: HIV protease inhibition assay. It is filed as biochemical.
Details: not given
`CC1=CC(C)(C)Nc2ccc(OC(=O)c3ccccc3Br)cc21` [Compound 3]: the “activity in HIVp inhibition assay (in words)” value is recorded as “active”.

The assay is the same for the next values; noted with them: HIVp inhibition.
In turn, `COc1ccc(C(=O)Oc2ccc3c(c2)C(C)=CC(C)(C)N3)cc1` [Compound 2] showed an IC50 of 18 µM. In other words, the double-digit micromolar range.

The same assay, now with this note: remaining HIV-1 protease activity at 150 μM compound.
`CCOc1ccccc1CNc1nc2[nH]c3c(c(=O)n2n1)CCC3`: the “Remain Activity” value is recorded as 75.44%.

On to `CC1=CC(C)(C)Nc2ccc(OC(=O)c3ccccc3Br)cc21` [drawing 433], for which the “Remain Activity” value is recorded as 65.33%.

Turning to `O=c1c2c([nH]c3nc(COc4ccccc4)nn13)CCC2`, the “Remain Activity” value was found to be 57.77%.

On to `CC1=CC(C)(C)Nc2ccc(OC(=O)c3cccnc3)cc21`, for which the “Remain Activity” value came out at 58.86%.

In the case of `CC1=CC(C)(C)Nc2ccc(OC(=O)c3ccc4c(c3)OCO4)cc21`, the “Remain Activity” value is given as 63.58%.

On to `O=C1[C@H]2CCCC[C@H]2C(=O)N1c1ccc2[nH]c(=S)sc2c1`, for which the “Remain Activity” value amounted to 51.9%.

In the case of `COc1cc(OC)cc(C(=O)Oc2ccc3c(c2)C(C)=CC(C)(C)N3)c1`, the “Remain Activity” value is 59.22%.

On to `Cc1cc(=O)n2nc(N3C(=O)[C@H]4CCCC[C@H]4C3=O)nc2[nH]1`, for which the “Remain Activity” value came out at 67.49%.

In the case of `CC1=CC(C)(C)Nc2ccc(OC(=O)c3cccc4ccccc34)cc21`, the “Remain Activity” value was found to be 65.34%.

As for `Cc1[nH]c2nc(NCc3cccc(Br)c3)nn2c(=O)c1Cl`, the “Remain Activity” value was 71.2%.

With `O=C1c2cccc([N+](=O)[O-])c2C(=O)N1c1ccc2[nH]c(=S)sc2c1`, the “Remain Activity” value was found to be 36.93%.

`CC1=NNc2nc3c(c(=O)n(Cc4ccccc4)c(=O)n3C)n2C1`: the “Remain Activity” value is on record as 65.08%.

Take `CC1=CC(C)(C)Nc2ccc(OC(=O)c3sc4cc([N+](=O)[O-])ccc4c3Cl)cc21`: the “Remain Activity” value was 56.93%.

With `CC1=CC(C)(C)Nc2ccc(OC(=O)c3cccs3)cc21`, the “Remain Activity” value was found to be 64.08%.

`O=C(Nc1ccc2[nH]c(=S)sc2c1)c1ccccc1`: the “Remain Activity” value is recorded as 65.14%.

In the case of `O=C(Nc1ccc(F)cc1F)c1cc2n(n1)[C@H](C(F)(F)F)[C@H]1CCCC[C@H]1N2`, the “Remain Activity” value is given as 64.91%.

Regarding `Cc1cc(=O)n2nc(NCc3cccs3)nc2[nH]1`, the “Remain Activity” value turned out to be 63.59%.

`CC1=CC(C)(C)Nc2ccc(OC(=O)c3ccco3)cc21`: the “Remain Activity” value is reported as 69.67%.

In the case of `CC1=CC(C)(C)Nc2ccc(OC(=O)c3cccc([N+](=O)[O-])c3)cc21`, the “Remain Activity” value came to 73.01%.
